Test results taken from the supplement of paper PMC10627819.

Experiments:
Test in all cases: fitness (endpoint OD595 vs no drug) (fraction); higher = more growth
S. aureus DSM 20231 = test system: S. aureus DSM 20231
Procedure, shortened: (§1)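 Fitness is computed from the optical density at which cultures reach stationary phase, divided by the robust mean of no-drug control wells. Any value above 1 is set to 1. Cultures started at OD595 0.01 in 384-well plates with TSB, LB Lennox or CY at 37 °C, and OD595 was read every 30 min for 14 h against a first-reading background.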

S. aureus Newman = test system: S. aureus Newman
Procedure, shortened: as §1

B. subtilis 168 = test system: B. subtilis 168
Procedure, shortened: as §1
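Note: OD595 on entry to stationary phase over no-drug wells; at most 1.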

N[C@@H]1CONC1=O [Cycloserine D] + CCN(CC)CCOC(=O)c1ccc(N)cc1 [Procaine]
fitness
Conditions	first compound 0.125 µg/mL	first compound 0.25 µg/mL	first compound 0.375 µg/mL	first compound 0.5 µg/mL	first compound 0.75 µg/mL	first compound 1.5 µg/mL
B. subtilis 168, partner 85.5 µg/mL	0.95	0.899	–	0.921	–	–
B. subtilis 168, partner 171 µg/mL	0.908	0.851	–	0.894	–	–
B. subtilis 168, partner 342 µg/mL	0.925	0.874	–	0.907	–	–
S. aureus DSM 20231, partner 85.5 µg/mL	–	–	0.979	–	0.982	0.981
S. aureus DSM 20231, partner 171 µg/mL	–	–	0.996	–	0.998	≥ 1
S. aureus DSM 20231, partner 342 µg/mL	–	–	≥ 1	–	0.966	≥ 1
S. aureus Newman, partner 85.5 µg/mL	–	–	≥ 1	–	≥ 1	≥ 1
S. aureus Newman, partner 171 µg/mL	–	–	0.993	–	≥ 1	≥ 1
S. aureus Newman, partner 342 µg/mL	–	–	≥ 1	–	≥ 1	≥ 1

N[C@@H]1CONC1=O [Cycloserine D] + CN1C2=CC=CC=C2N=C3C1=CC=CC3=O [Pyocyanin]
fitness
Conditions	first compound 0.125 µg/mL	first compound 0.25 µg/mL	first compound 0.375 µg/mL	first compound 0.5 µg/mL	first compound 0.75 µg/mL	first compound 1.5 µg/mL
B. subtilis 168, partner 1.25 µg/mL	0.878	0.871	–	0.877	–	–
B. subtilis 168, partner 2.5 µg/mL	0.833	0.781	–	0.828	–	–
B. subtilis 168, partner 5 µg/mL	0.697	0.667	–	0.623	–	–
S. aureus DSM 20231, partner 1.25 µg/mL	–	–	0.983	–	0.985	0.962
S. aureus DSM 20231, partner 2.5 µg/mL	–	–	0.884	–	0.875	0.865
S. aureus DSM 20231, partner 5 µg/mL	–	–	0.826	–	0.855	0.777
S. aureus Newman, partner 1.25 µg/mL	–	–	0.85	–	0.856	0.868
S. aureus Newman, partner 2.5 µg/mL	–	–	0.8	–	0.764	0.826
S. aureus Newman, partner 5 µg/mL	–	–	0.457	–	0.378	0.42

N[C@@H]1CONC1=O [Cycloserine D] + CN(N=O)C(=O)N[C@@H](C=O)[C@@H](O)[C@H](O)[C@H](O)CO [Streptozotocin]
fitness
Conditions	first compound 0.125 µg/mL	first compound 0.25 µg/mL	first compound 0.375 µg/mL	first compound 0.5 µg/mL	first compound 0.75 µg/mL	first compound 1.5 µg/mL
B. subtilis 168, partner 0.15 µg/mL	0.991	0.979	–	0.975	–	–
B. subtilis 168, partner 0.3 µg/mL	0.963	0.98	–	0.931	–	–
B. subtilis 168, partner 0.6 µg/mL	0.984	0.988	–	0.958	–	–
S. aureus DSM 20231, partner 0.15 µg/mL	–	–	0.822	–	0.823	0.788
S. aureus DSM 20231, partner 0.3 µg/mL	–	–	0.867	–	0.846	0.806
S. aureus DSM 20231, partner 0.6 µg/mL	–	–	0.609	–	0.649	0.655
S. aureus Newman, partner 0.15 µg/mL	–	–	0.833	–	0.762	0.741
S. aureus Newman, partner 0.3 µg/mL	–	–	0.665	–	0.674	0.674
S. aureus Newman, partner 0.6 µg/mL	–	–	0.607	–	0.512	0.584

N[C@@H]1CONC1=O [Cycloserine D] + CN[C@@H]1[C@H](O)[C@H](NC)[C@H]2O[C@@]3(O)C(=O)C[C@@H](C)O[C@H]3O[C@@H]2[C@H]1O [Spectinomycin]
fitness
Conditions	first compound 0.125 µg/mL	first compound 0.25 µg/mL	first compound 0.375 µg/mL	first compound 0.5 µg/mL	first compound 0.75 µg/mL	first compound 1.5 µg/mL
B. subtilis 168, partner 2 µg/mL	≥ 1	0.985	–	0.992	–	–
B. subtilis 168, partner 4 µg/mL	0.947	0.934	–	0.957	–	–
B. subtilis 168, partner 8 µg/mL	0.906	0.924	–	0.879	–	–
S. aureus DSM 20231, partner 4 µg/mL	–	–	0.977	–	0.971	0.969
S. aureus DSM 20231, partner 8 µg/mL	–	–	0.944	–	0.981	0.932
S. aureus DSM 20231, partner 16 µg/mL	–	–	0.842	–	0.877	0.882
S. aureus Newman, partner 4 µg/mL	–	–	0.96	–	0.924	0.908
S. aureus Newman, partner 8 µg/mL	–	–	≥ 1	–	0.94	0.917
S. aureus Newman, partner 16 µg/mL	–	–	0.941	–	0.894	0.875

fitness, one replicate
Conditions	first compound 0.375 µg/mL	first compound 0.75 µg/mL	first compound 1.5 µg/mL
S. aureus DSM 20231, partner 32 µg/mL	0.726	0.786	0.736
S. aureus DSM 20231, partner 64 µg/mL	0.0858	0.0864	0.0563
S. aureus Newman, partner 32 µg/mL	0.575	0.596	0.501
S. aureus Newman, partner 64 µg/mL	0.0802	0.0265	0.0316

N[C@@H]1CONC1=O [Cycloserine D] + CN[C@H](CC(C)C)C(=O)N[C@H]1C(=O)N[C@@H](CC(N)=O)C(=O)N[C@H]2C(=O)N[C@H]3C(=O)N[C@H](C(=O)N[C@H](C(=O)O)c4cc(O)cc(O)c4-c4cc3ccc4O)[C@H](O)c3ccc(c(Cl)c3)Oc3cc2cc(c3O[C@@H]2O[C@H](CO)[C@@H](O)[C@H](O)[C@H]2O[C@H]2C[C@](C)(N)[C@H](O)[C@H](C)O2)Oc2ccc(cc2Cl)[C@H]1O [Vancomycin]
fitness
Conditions	first compound 0.375 µg/mL	first compound 0.75 µg/mL	first compound 1.5 µg/mL
S. aureus DSM 20231, partner 0.1875 µg/mL	≥ 1	0.973	≥ 1
S. aureus DSM 20231, partner 0.375 µg/mL	≥ 1	≥ 1	0.957
S. aureus DSM 20231, partner 0.75 µg/mL	≥ 1	≥ 1	≥ 1
S. aureus Newman, partner 0.1875 µg/mL	≥ 1	0.995	0.983
S. aureus Newman, partner 0.375 µg/mL	≥ 1	≥ 1	≥ 1
S. aureus Newman, partner 0.75 µg/mL	≥ 1	0.975	0.967

N[C@@H]1CONC1=O [Cycloserine D] + CO/N=C(\C(=O)N[C@@H]1C(=O)N2C(C(=O)[O-])=C(C[N+]3(C)CCCC3)CS[C@H]12)c1csc(N)n1 [Cefepime]
fitness
Conditions	first compound 0.375 µg/mL	first compound 0.75 µg/mL	first compound 1.5 µg/mL
S. aureus DSM 20231, partner 0.125 µg/mL	0.907	0.936	0.99
S. aureus DSM 20231, partner 0.25 µg/mL	0.92	0.97	0.952
S. aureus DSM 20231, partner 0.5 µg/mL	0.853	0.884	0.862
S. aureus Newman, partner 0.125 µg/mL	0.894	0.925	0.89
S. aureus Newman, partner 0.25 µg/mL	0.808	0.854	0.852
S. aureus Newman, partner 0.5 µg/mL	0.782	0.801	0.779

N[C@@H]1CONC1=O [Cycloserine D] + CO[C@@]12[C@H](COC(N)=O)C3=C(C(=O)C(C)=C(N)C3=O)N1C[C@@H]1N[C@@H]12 [Mitomycin C]
fitness
Conditions	first compound 0.375 µg/mL	first compound 0.75 µg/mL	first compound 1.5 µg/mL
S. aureus DSM 20231, partner 0.0156 µg/mL	0.746	0.739	0.71
S. aureus DSM 20231, partner 0.0312 µg/mL	0.716	0.716	0.711
S. aureus DSM 20231, partner 0.0625 µg/mL	0.528	0.542	0.513
S. aureus Newman, partner 0.0156 µg/mL	0.682	0.71	0.732
S. aureus Newman, partner 0.0312 µg/mL	0.656	0.651	0.693
S. aureus Newman, partner 0.0625 µg/mL	0.567	0.5	0.555
